Measured values reported in ChEMBL document CHEMBL5724914, “Linking interpersonal differences in gut microbiota composition and drug biotransformation activity” (2024).

Assay: (§1) The drug is tested on WLS-039 corresponding to human gut metagenome with ENA study accession number: PRJEB37062 and ENA sample accession number: ERS12561746 for biotransformation under anaerobic condition. The drug concentrations were measured over 9 timepoints collected between 0 and 24 hours of incubation by liquid-chromatography-coupled mass spectrometry (LC–MS)
Settings: 2 µM
Note: call rule not given here.

| Bacterial Biotransformation | SMILES |
| --- | --- |
| Compound NOT metabolized | CCOc1ccc(NC(C)=O)cc1 [PHENACETIN] |
| Compound metabolized | CC(C(=O)O)c1ccc2c(c1)Cc1cccnc1O2 (stereo not given) [PRANOPROFEN] |
| Compound metabolized | O=C(CCCN1CCC(O)(c2ccc(Cl)cc2)CC1)c1ccc(F)cc1 [HALOPERIDOL] |

Assay: as §1, with “WLS-010” for “WLS-039”, “ERS12561743” for “ERS12561746”
Settings: 2 µM

| Bacterial Biotransformation | SMILES |
| --- | --- |
| Compound NOT metabolized | CCOc1ccc(NC(C)=O)cc1 [PHENACETIN] |
| Compound metabolized | CC(C(=O)O)c1ccc2c(c1)Cc1cccnc1O2 (stereo not given) [PRANOPROFEN] |
| Compound NOT metabolized | O=C(CCCN1CCC(O)(c2ccc(Cl)cc2)CC1)c1ccc(F)cc1 [HALOPERIDOL] |

Assay: as §1, with “WLS-027” for “WLS-039”, “ERS12561744” for “ERS12561746”
Settings: 2 µM

| Bacterial Biotransformation | SMILES |
| --- | --- |
| Compound NOT metabolized | CCOc1ccc(NC(C)=O)cc1 [PHENACETIN] |
| Compound metabolized | CC(C(=O)O)c1ccc2c(c1)Cc1cccnc1O2 (stereo not given) [PRANOPROFEN] |
| Compound metabolized | O=C(CCCN1CCC(O)(c2ccc(Cl)cc2)CC1)c1ccc(F)cc1 [HALOPERIDOL] |

Assay: as §1, with “WLS-170” for “WLS-039”, “ERS12561762” for “ERS12561746”
Settings: 2 µM

| Bacterial Biotransformation | SMILES |
| --- | --- |
| Compound NOT metabolized | CCOc1ccc(NC(C)=O)cc1 [PHENACETIN] |
| Compound metabolized | CC(C(=O)O)c1ccc2c(c1)Cc1cccnc1O2 (stereo not given) [PRANOPROFEN] |
| Compound metabolized | O=C(CCCN1CCC(O)(c2ccc(Cl)cc2)CC1)c1ccc(F)cc1 [HALOPERIDOL] |

Settings: human gut metagenome, 24 h, 2 µM

| Bacterial Biotransformation | SMILES |
| --- | --- |
| Compound NOT metabolized | CCOc1ccc(NC(C)=O)cc1 [PHENACETIN] |
| Compound metabolized | CC(C(=O)O)c1ccc2c(c1)Cc1cccnc1O2 (stereo not given) [PRANOPROFEN] |
| Compound NOT metabolized | O=C(CCCN1CCC(O)(c2ccc(Cl)cc2)CC1)c1ccc(F)cc1 [HALOPERIDOL] |

Settings: human gut metagenome, 24 h, 2 µM
Remark: another data set of the same source

| Bacterial Biotransformation | SMILES |
| --- | --- |
| Compound NOT metabolized | CCOc1ccc(NC(C)=O)cc1 [PHENACETIN] |
| Compound metabolized | CC(C(=O)O)c1ccc2c(c1)Cc1cccnc1O2 (stereo not given) [PRANOPROFEN] |
| Compound metabolized | O=C(CCCN1CCC(O)(c2ccc(Cl)cc2)CC1)c1ccc(F)cc1 [HALOPERIDOL] |

Assay: as §1, with “Z-011” for “WLS-039”, “mouse” for “human”, “ERS12561811” for “ERS12561746”
Settings: 2 µM

| Bacterial Biotransformation | SMILES |
| --- | --- |
| Compound NOT metabolized | CCOc1ccc(NC(C)=O)cc1 [PHENACETIN] |
| Compound metabolized | CC(C(=O)O)c1ccc2c(c1)Cc1cccnc1O2 (stereo not given) [PRANOPROFEN] |
| Compound NOT metabolized | O=C(CCCN1CCC(O)(c2ccc(Cl)cc2)CC1)c1ccc(F)cc1 [HALOPERIDOL] |

Assay: as §1, with “Z-010” for “WLS-039”, “to” for “to human gut”, “ERS12561810” for “ERS12561746”
Settings: 2 µM

| Bacterial Biotransformation | SMILES |
| --- | --- |
| Compound NOT metabolized | CCOc1ccc(NC(C)=O)cc1 [PHENACETIN] |
| Compound metabolized | CC(C(=O)O)c1ccc2c(c1)Cc1cccnc1O2 (stereo not given) [PRANOPROFEN] |
| Compound NOT metabolized | O=C(CCCN1CCC(O)(c2ccc(Cl)cc2)CC1)c1ccc(F)cc1 [HALOPERIDOL] |

Assay: as §1, with “Z-026” for “WLS-039”, “to” for “to human gut”, “ERS12561825” for “ERS12561746”
Settings: 2 µM

| Bacterial Biotransformation | SMILES |
| --- | --- |
| Compound NOT metabolized | CCOc1ccc(NC(C)=O)cc1 [PHENACETIN] |
| Compound NOT metabolized | CC(C(=O)O)c1ccc2c(c1)Cc1cccnc1O2 (stereo not given) [PRANOPROFEN] |
| Compound NOT metabolized | O=C(CCCN1CCC(O)(c2ccc(Cl)cc2)CC1)c1ccc(F)cc1 [HALOPERIDOL] |

Settings: human gut metagenome, 24 h, 2 µM
Remark: another data set of the same source

| Bacterial Biotransformation | SMILES |
| --- | --- |
| Compound NOT metabolized | CCOc1ccc(NC(C)=O)cc1 [PHENACETIN] |
| Compound metabolized | CC(C(=O)O)c1ccc2c(c1)Cc1cccnc1O2 (stereo not given) [PRANOPROFEN] |
| Compound metabolized | O=C(CCCN1CCC(O)(c2ccc(Cl)cc2)CC1)c1ccc(F)cc1 [HALOPERIDOL] |

Assay: as §1, with “WLS-007” for “WLS-039”, “ERS12561742” for “ERS12561746”
Settings: 2 µM

| Bacterial Biotransformation | SMILES |
| --- | --- |
| Compound NOT metabolized | CCOc1ccc(NC(C)=O)cc1 [PHENACETIN] |
| Compound metabolized | CC(C(=O)O)c1ccc2c(c1)Cc1cccnc1O2 (stereo not given) [PRANOPROFEN] |
| Compound NOT metabolized | O=C(CCCN1CCC(O)(c2ccc(Cl)cc2)CC1)c1ccc(F)cc1 [HALOPERIDOL] |

Assay: as §1, with “WLS-240” for “WLS-039”, “ERS12561773” for “ERS12561746”
Settings: 2 µM

| Bacterial Biotransformation | SMILES |
| --- | --- |
| Compound NOT metabolized | CCOc1ccc(NC(C)=O)cc1 [PHENACETIN] |
| Compound metabolized | CC(C(=O)O)c1ccc2c(c1)Cc1cccnc1O2 (stereo not given) [PRANOPROFEN] |
| Compound metabolized | O=C(CCCN1CCC(O)(c2ccc(Cl)cc2)CC1)c1ccc(F)cc1 [HALOPERIDOL] |

Assay: as §1, with “WLS-098” for “WLS-039”, “ERS12561754” for “ERS12561746”
Settings: 2 µM

| Bacterial Biotransformation | SMILES |
| --- | --- |
| Compound NOT metabolized | CCOc1ccc(NC(C)=O)cc1 [PHENACETIN] |
| Compound metabolized | CC(C(=O)O)c1ccc2c(c1)Cc1cccnc1O2 (stereo not given) [PRANOPROFEN] |
| Compound metabolized | O=C(CCCN1CCC(O)(c2ccc(Cl)cc2)CC1)c1ccc(F)cc1 [HALOPERIDOL] |

Settings: human gut metagenome, 24 h, 2 µM
Remark: another data set of the same source

| Bacterial Biotransformation | SMILES |
| --- | --- |
| Compound NOT metabolized | CCOc1ccc(NC(C)=O)cc1 [PHENACETIN] |
| Compound metabolized | CC(C(=O)O)c1ccc2c(c1)Cc1cccnc1O2 (stereo not given) [PRANOPROFEN] |
| Compound NOT metabolized | O=C(CCCN1CCC(O)(c2ccc(Cl)cc2)CC1)c1ccc(F)cc1 [HALOPERIDOL] |

Settings: human gut metagenome, 24 h, 2 µM
Remark: another data set of the same source

| Bacterial Biotransformation | SMILES |
| --- | --- |
| Compound NOT metabolized | CCOc1ccc(NC(C)=O)cc1 [PHENACETIN] |
| Compound metabolized | CC(C(=O)O)c1ccc2c(c1)Cc1cccnc1O2 (stereo not given) [PRANOPROFEN] |
| Compound NOT metabolized | O=C(CCCN1CCC(O)(c2ccc(Cl)cc2)CC1)c1ccc(F)cc1 [HALOPERIDOL] |

Settings: human gut metagenome, 24 h, 2 µM
Remark: another data set of the same source

| Bacterial Biotransformation | SMILES |
| --- | --- |
| Compound NOT metabolized | CCOc1ccc(NC(C)=O)cc1 [PHENACETIN] |
| Compound metabolized | CC(C(=O)O)c1ccc2c(c1)Cc1cccnc1O2 (stereo not given) [PRANOPROFEN] |
| Compound NOT metabolized | O=C(CCCN1CCC(O)(c2ccc(Cl)cc2)CC1)c1ccc(F)cc1 [HALOPERIDOL] |

Assay: as §1, with “WLS-038” for “WLS-039”, “ERS12561745” for “ERS12561746”
Settings: 2 µM

| Bacterial Biotransformation | SMILES |
| --- | --- |
| Compound NOT metabolized | CCOc1ccc(NC(C)=O)cc1 [PHENACETIN] |
| Compound metabolized | CC(C(=O)O)c1ccc2c(c1)Cc1cccnc1O2 (stereo not given) [PRANOPROFEN] |
| Compound NOT metabolized | O=C(CCCN1CCC(O)(c2ccc(Cl)cc2)CC1)c1ccc(F)cc1 [HALOPERIDOL] |

Assay: as §1, with “Z-012” for “WLS-039”, “to” for “to human gut”, “ERS12561812” for “ERS12561746”
Settings: 2 µM

| Bacterial Biotransformation | SMILES |
| --- | --- |
| Compound NOT metabolized | CCOc1ccc(NC(C)=O)cc1 [PHENACETIN] |
| Compound metabolized | CC(C(=O)O)c1ccc2c(c1)Cc1cccnc1O2 (stereo not given) [PRANOPROFEN] |
| Compound NOT metabolized | O=C(CCCN1CCC(O)(c2ccc(Cl)cc2)CC1)c1ccc(F)cc1 [HALOPERIDOL] |

Settings: human gut metagenome, 24 h, 2 µM
Remark: another data set of the same source

| Bacterial Biotransformation | SMILES |
| --- | --- |
| Compound NOT metabolized | CCOc1ccc(NC(C)=O)cc1 [PHENACETIN] |
| Compound metabolized | CC(C(=O)O)c1ccc2c(c1)Cc1cccnc1O2 (stereo not given) [PRANOPROFEN] |
| Compound NOT metabolized | O=C(CCCN1CCC(O)(c2ccc(Cl)cc2)CC1)c1ccc(F)cc1 [HALOPERIDOL] |

Assay: as §1, with “Z-002” for “WLS-039”, “rabbit” for “human”, “ERS12561802” for “ERS12561746”
Settings: 2 µM

| Bacterial Biotransformation | SMILES |
| --- | --- |
| Compound NOT metabolized | CCOc1ccc(NC(C)=O)cc1 [PHENACETIN] |
| Compound metabolized | CC(C(=O)O)c1ccc2c(c1)Cc1cccnc1O2 (stereo not given) [PRANOPROFEN] |
| Compound metabolized | O=C(CCCN1CCC(O)(c2ccc(Cl)cc2)CC1)c1ccc(F)cc1 [HALOPERIDOL] |
